Data as given in ChEMBL document CHEMBL1201862, “PubChem BioAssay data set” (2004).
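1) Cells in 96-well plates. 2) Compound, 48 h, 5 concentrations. 3) Linear interpolation between surrounding doses. 4) Unreached endpoint = highest concentration. Abbreviation: GI50, concentration required for 50% inhibition of growth.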 The source made the active and inactive calls. Rule as the data show it: active = GI50 up to about 1.1 µM and inactive = higher.

Legend:
Test in all cases: NCI-60 cell line screen, 48 h
NCI/ADR-RES = tested on: NCI/ADR-RES
TK-10 = tested on: TK-10
NCI-H23 = tested on: NCI-H23
HT-29 = tested on: HT-29
NCI-H226 = tested on: NCI-H226
LOX IMVI = tested on: LOX IMVI
ACHN = tested on: ACHN
M14 = tested on: M14
SK-MEL-5 = tested on: SK-MEL-5
NCI-H460 = tested on: NCI-H460
A498 = tested on: A498
UACC-257 = tested on: UACC-257
RXF 393 = tested on: RXF 393
HCT-116 = tested on: HCT-116
DU-145 = tested on: DU-145
COLO 205 = tested on: COLO 205
SNB-19 = tested on: SNB-19
SK-OV-3 = tested on: SK-OV-3

Structure (SMILES): Cc1cn2c(/C=N/NC(=N)N)c(-c3cccc([N+](=O)[O-])c3)nc2s1
- GI50 (NCI/ADR-RES): 28.4 µM (inactive)
- GI50 (TK-10): 2.21 µM (inactive)
- GI50 (NCI-H23): 2.39 µM (inactive)
- GI50 (HT-29): 0.514 µM (active)
- GI50 (NCI-H226): 1.91 µM (inactive)
- GI50 (LOX IMVI): 0.849 µM (active)
- GI50 (ACHN): 1.67 µM (inactive)
- GI50 (M14): 1.85 µM (inactive)
- GI50 (SK-MEL-5): 1.63 µM (inactive)
- GI50 (NCI-H460): 2.01 µM (inactive)
- GI50 (A498): 1.48 µM (inactive)
- GI50 (UACC-257): 2.11 µM (inactive)
- GI50 (RXF 393): 1.15 µM (inactive)
- GI50 (HCT-116): 0.366 µM (active)
- GI50 (DU-145): 1.74 µM (inactive)

Structure (SMILES): CO[C@@]12C[C@H](CNC(=O)c3ccc[nH]3)O[C@@H]1NC(=O)N2
- GI50 (COLO 205): > 100 µM (inactive)
- GI50 (NCI/ADR-RES): > 100 µM (inactive)
- GI50 (TK-10): > 100 µM (inactive)
- GI50 (SNB-19): > 100 µM (inactive)
- GI50 (NCI-H23): > 100 µM (inactive)
- GI50 (HT-29): > 100 µM (inactive)
- GI50 (NCI-H226): > 100 µM (inactive)
- GI50 (LOX IMVI): > 100 µM (inactive)
- GI50 (ACHN): > 100 µM (inactive)
- GI50 (M14): > 100 µM (inactive)
- GI50 (SK-MEL-5): > 100 µM (inactive)
- GI50 (SK-OV-3): > 100 µM (inactive)
- GI50 (NCI-H460): > 100 µM (inactive)
- GI50 (A498): > 100 µM (inactive)
- GI50 (UACC-257): > 100 µM (inactive)
- GI50 (HCT-116): > 100 µM (inactive)
- GI50 (DU-145): > 100 µM (inactive)

Structure (SMILES): Clc1ccc(/C=c2\nc(-c3ccccc3)n3c2nc2ccccc23)cc1
- GI50 (COLO 205): > 100 µM (inactive)
- GI50 (NCI/ADR-RES): 28.2 µM (inactive)
- GI50 (TK-10): > 100 µM (inactive)
- GI50 (SNB-19): > 100 µM (inactive)
- GI50 (NCI-H23): > 100 µM (inactive)
- GI50 (HT-29): > 100 µM (inactive)
- GI50 (NCI-H226): > 100 µM (inactive)
- GI50 (LOX IMVI): > 100 µM (inactive)
- GI50 (ACHN): 21.9 µM (inactive)
- GI50 (M14): > 100 µM (inactive)
- GI50 (SK-MEL-5): > 100 µM (inactive)
- GI50 (SK-OV-3): 43.3 µM (inactive)
- GI50 (NCI-H460): > 100 µM (inactive)
- GI50 (A498): > 100 µM (inactive)
- GI50 (UACC-257): > 100 µM (inactive)
- GI50 (RXF 393): 28.7 µM (inactive)
- GI50 (HCT-116): > 100 µM (inactive)
- GI50 (DU-145): > 100 µM (inactive)

Structure (SMILES): CS/C(=N\Nc1cnc2ccccc2n1)NS(=O)(=O)c1cc(C)c(Cl)cc1Cl
- GI50 (COLO 205): > 100 µM (inactive)
- GI50 (NCI/ADR-RES): 84.7 µM (inactive)
- GI50 (TK-10): 82 µM (inactive)
- GI50 (SNB-19): > 100 µM (inactive)
- GI50 (NCI-H23): > 100 µM (inactive)
- GI50 (HT-29): > 100 µM (inactive)
- GI50 (NCI-H226): > 100 µM (inactive)
- GI50 (LOX IMVI): 61.1 µM (inactive)
- GI50 (ACHN): > 100 µM (inactive)
- GI50 (M14): > 100 µM (inactive)
- GI50 (SK-MEL-5): > 100 µM (inactive)
- GI50 (SK-OV-3): > 100 µM (inactive)
- GI50 (NCI-H460): > 100 µM (inactive)
- GI50 (A498): 43.3 µM (inactive)
- GI50 (UACC-257): > 100 µM (inactive)
- GI50 (RXF 393): > 100 µM (inactive)
- GI50 (HCT-116): > 100 µM (inactive)
- GI50 (DU-145): > 100 µM (inactive)

Structure (SMILES): Cc1cc2c(cc1Cl)SC(c1ccccc1O)NS2(=O)=O (centres undefined)
- GI50 (COLO 205): 20.8 µM (inactive)
- GI50 (NCI/ADR-RES): 30.7 µM (inactive)
- GI50 (TK-10): > 100 µM (inactive)
- GI50 (SNB-19): 81.3 µM (inactive)
- GI50 (NCI-H23): 70.6 µM (inactive)
- GI50 (HT-29): 45.4 µM (inactive)
- GI50 (NCI-H226): 86.5 µM (inactive)
- GI50 (LOX IMVI): 43.8 µM (inactive)
- GI50 (ACHN): 52.8 µM (inactive)
- GI50 (M14): 57 µM (inactive)
- GI50 (SK-MEL-5): 42.7 µM (inactive)
- GI50 (SK-OV-3): > 100 µM (inactive)
- GI50 (NCI-H460): 92 µM (inactive)
- GI50 (A498): > 100 µM (inactive)
- GI50 (UACC-257): 53 µM (inactive)
- GI50 (RXF 393): 53.5 µM (inactive)
- GI50 (HCT-116): 27.5 µM (inactive)
- GI50 (DU-145): 33.9 µM (inactive)

Structure (SMILES): Brc1ccc2[nH]cc([C@H]3CN[C@@H](c4c[nH]c5ccc(Br)cc45)CN3)c2c1
- GI50 (COLO 205): 1.73 µM (inactive)
- GI50 (NCI/ADR-RES): 1.93 µM (inactive)
- GI50 (TK-10): 2.26 µM (inactive)
- GI50 (SNB-19): 2.83 µM (inactive)
- GI50 (NCI-H23): 1.6 µM (inactive)
- GI50 (HT-29): 1.97 µM (inactive)
- GI50 (NCI-H226): 2.45 µM (inactive)
- GI50 (LOX IMVI): 1.44 µM (inactive)
- GI50 (ACHN): 1.93 µM (inactive)
- GI50 (M14): 1.81 µM (inactive)
- GI50 (SK-MEL-5): 2.56 µM (inactive)
- GI50 (SK-OV-3): 2.49 µM (inactive)
- GI50 (NCI-H460): 2.36 µM (inactive)
- GI50 (A498): 2 µM (inactive)
- GI50 (UACC-257): 3.64 µM (inactive)
- GI50 (RXF 393): 2.65 µM (inactive)
- GI50 (HCT-116): 2.02 µM (inactive)
- GI50 (DU-145): 2.23 µM (inactive)
